Tested on: A2780/CP tumor cells
Experiment: A2780/CP ovarian tumor xenograft model
Format: in vivo, female athymic nude mice
Method: The compound tested, {[5-(3-fluorophenyl)-3-hydroxypyridine-2-carbonyl]-amino} acetic acid, was formulated in a 0.25% hydroxypropyl methyl cellulose/0.1% Tween™ 80 solution in reverse osmosis deionized water. The test compound was reconstituted at concentrations of 1.8 and 3.6 mg/ml as instructed on each vial to deliver doses of 18 and 36 mg/kg, respectively, at a […] dose volume. Solutions of the test compound were prepared weekly and stored at 4° C. protected from light. All formulations were removed from the refrigerator and stirred for 30 minutes before dosing, and continuously stirred during dosing.
The vehicle control was prepared by making a solution of 0.25% hydroxypropyl methyl cellulose/0.1% Tween™ 80 solution in reverse osmosis deionized water.
A2780/CP ovarian tumor cell line was received from Sigma-Aldrich (St. Louis, Mo.). Cultures were maintained in RPMI 1640 (Hyclone, Logan, Utah), supplemented with 10% fetal bovine serum, and housed in a 5% CO2 atmosphere. The cultures were expanded in tissue culture flasks at a 1:3 split ratio until a sufficient yield of cells was achieved.
Female athymic nude mice were supplied by Harlan (Indianapolis, Ind.). Mice were received at four to five weeks of age, 12-15 grams in weight, and were acclimated for seven days prior to handling. The mice were housed in microisolator cages and maintained under specific pathogen-free conditions. The mice were fed Tekland Global Diet™ 2920x irradiated laboratory animal diet (Harlan, Indianapolis, Ind.) and autoclaved water was freely available.
Sixty female mice were inoculated subcutaneously in the right flank with 0.1 ml of a 50% RPMI/50% Matrigel™ (BD Biosciences, Bedford, Mass.) mixture containing a suspension of A2780/CP tumor cells (approximately 1.0×10^7 cells/mouse).
Three days following inoculation, tumors were measured using calipers and tumor weight was calculated using the animal study management software. Thirty mice with tumor sizes of 80.4-170.6 mg were randomized into three groups often mice (Groups 1-3) by random equilibration. Body weights were recorded when the mice were randomized and were taken twice per week thereafter in conjunction with tumor measurements.
Animals were treated until the study endpoint. Group I received only vehicle (control). Group II was given doses of 1.8 mg/mL {[5-(3-fluorophenyl)-3-hydroxypyridine-2-carbonyl]-amino} acetic acid while Group III was given doses of 3.6 mg/mL {[5-(3-fluorophenyl)-3-hydroxypyridine-2-carbonyl]-amino} acetic acid. All doses were given via oral administration (PO). The administered volume of each dose was approximately 1 mL/100 g body weight of animal.
Tumor mass (mg) was determined using the formula:
where “a” is the largest diameter and “b” is the smallest diameter. Measurements were made using calipers. The mean tumor size when study began was 100-125 mg. On day one of the study, animals were randomly assigned to the three groups described above.
Tumors were collected from Groups 1-3 of the main study when individual tumors reached a tumor weight of ≧2000 mg by using the procedure above. Tumor size measurements and animal body weight were taken twice weekly.

O=C(O)CNC(=O)c1ncc(-c2cccc(F)c2)cc1O [disclosed HIF-2α stabilizer, {[5-(3-Fluorophenyl)-3-hydroxypyridine-2-carbonyl]amino} acetic acid]
Mean Tumor Mass (18 mg/kg QD PO, study day 1): 119.6 mg
Median Tumor Mass (18 mg/kg QD PO, study day 1): 121.3 mg
Mean Tumor Mass (18 mg/kg QD PO, study day 4): 188.2 mg
Median Tumor Mass (18 mg/kg QD PO, study day 4): 191.0 mg
No. Surviving Animals (18 mg/kg QD PO, study day 4): 10
Wgt % change (18 mg/kg QD PO, study day 4): −0.31%
Mean Tumor Mass (18 mg/kg QD PO, study day 8): 326.9 mg
Median Tumor Mass (18 mg/kg QD PO, study day 8): 243.8 mg
No. Surviving Animals (18 mg/kg QD PO, study day 8): 10
Wgt % change (18 mg/kg QD PO, study day 8): 4.40%
Mean Tumor Mass (18 mg/kg QD PO, study day 11): 682.8 mg
Median Tumor Mass (18 mg/kg QD PO, study day 11): 528.0 mg
No. Surviving Animals (18 mg/kg QD PO, study day 11): 10
Wgt % change (18 mg/kg QD PO, study day 11): 6.02%
Mean Tumor Mass (18 mg/kg QD PO, study day 16): 2508.0 mg
Median Tumor Mass (18 mg/kg QD PO, study day 16): 1826.2 mg
No. Surviving Animals (18 mg/kg QD PO, study day 16): 10
Wgt % change (18 mg/kg QD PO, study day 16): 16.40%
Mean Tumor Mass (18 mg/kg QD PO, study day 19): 2647.4 mg
Median Tumor Mass (18 mg/kg QD PO, study day 19): 3030.1 mg
No. Surviving Animals (18 mg/kg QD PO, study day 19): 6
Wgt % change (18 mg/kg QD PO, study day 19): 16.82%
Mean Tumor Mass (18 mg/kg QD PO, study day 22): 1761.6 mg
Median Tumor Mass (18 mg/kg QD PO, study day 22): 1761.6 mg
No. Surviving Animals (18 mg/kg QD PO, study day 22): 1
Wgt % change (18 mg/kg QD PO, study day 22): 19.43%
Mean Tumor Mass (18 mg/kg QD PO, study day 25): 2838.3 mg
Median Tumor Mass (18 mg/kg QD PO, study day 25): 2838.3 mg
No. Surviving Animals (18 mg/kg QD PO, study day 25): 1
Wgt % change (18 mg/kg QD PO, study day 25): 19.43%
Mean Tumor Mass (36 mg/kg QD PO, study day 1): 120.3 mg
Median Tumor Mass (36 mg/kg QD PO, study day 1): 123.3 mg
Mean Tumor Mass (36 mg/kg QD PO, study day 4): 186.4 mg
Median Tumor Mass (36 mg/kg QD PO, study day 4): 182.8 mg
No. Surviving Animals (36 mg/kg QD PO, study day 4): 10
Wgt % change (36 mg/kg QD PO, study day 4): −0.41%
Mean Tumor Mass (36 mg/kg QD PO, study day 8): 312.8 mg
Median Tumor Mass (36 mg/kg QD PO, study day 8): 323.4 mg
No. Surviving Animals (36 mg/kg QD PO, study day 8): 10
Wgt % change (36 mg/kg QD PO, study day 8): 4.04%
Mean Tumor Mass (36 mg/kg QD PO, study day 11): 708.1 mg
Median Tumor Mass (36 mg/kg QD PO, study day 11): 830.4 mg
No. Surviving Animals (36 mg/kg QD PO, study day 11): 10
Wgt % change (36 mg/kg QD PO, study day 11): 5.48%
Mean Tumor Mass (36 mg/kg QD PO, study day 16): 2354.5 mg
Median Tumor Mass (36 mg/kg QD PO, study day 16): 2441.8 mg
No. Surviving Animals (36 mg/kg QD PO, study day 16): 10
Wgt % change (36 mg/kg QD PO, study day 16): 15.86%
Mean Tumor Mass (36 mg/kg QD PO, study day 19): 1858.8 mg
Median Tumor Mass (36 mg/kg QD PO, study day 19): 1568.0 mg
No. Surviving Animals (36 mg/kg QD PO, study day 19): 4
Wgt % change (36 mg/kg QD PO, study day 19): 12.79%
Mean Tumor Mass (36 mg/kg QD PO, study day 22): 2456.9 mg
Median Tumor Mass (36 mg/kg QD PO, study day 22): 2384.6 mg
No. Surviving Animals (36 mg/kg QD PO, study day 22): 3
Wgt % change (36 mg/kg QD PO, study day 22): 8.50%
rate of tumor mass growth (18 and 36 mg/kg QD PO vs control group, FIGS. 7 to 9, Table I): significantly reduced
